For 85 compounds, melting point results are on record in a melting point compilation (Tetko et al.; mined from patent text by program, amines drawn as free bases though some values may be those of a salt).

The melting point is the temperature of the solid-liquid transition.

The structures appear in SMILES notation.

`CCc1c(CNc2ccc3ccc(C)nc3n2)c(CC)c(CNc2ccc3ccc(C)nc3n2)c(CC)c1CNc1ccc2ccc(C)nc2n1` yielded a melting point of 207 to 208 °C.

Turning to `CCc1ccc2cc[nH]c2n1`, the melting point fell in the range of 117 to 120 °C.

Consider `CC(C)(C)NC(=O)[C@@H]1C[C@H](Cl)CN1C(=O)[C@@H](O)[C@H](Cc1ccccc1)NC(=O)[C@H](CCS(C)(=O)=O)NC(=O)OCc1ccccc1`, for which the melting point fell in the range of 99 to 103 °C.

For the compound `CCCCCc1ccc(CCc2ccc(-c3ccc(OC(F)F)cc3)cc2)cc1`, the melting point is 121 °C.

In turn, `O=C(O)c1ccc(Nc2c(C(=O)O)cc(Cl)cc2[N+](=O)[O-])cc1` yielded a melting point of 264 to 266 °C.

Regarding `CC(C)(CCl)C(=O)NCc1ccc(Cl)cc1`, the melting point was in the range of 97 to 98 °C.

On to `Ic1nnnn1-c1ccccc1`, for which the melting point is 123 to 129 °C.

Turning to `CCCCCOc1ccc(C(=O)NCCCCCCCNC(=O)c2ccc(OCCCCC)cc2)cc1`, the melting point lay within 155 to 156 °C.

`CC(C)(c1ccc(Oc2ccc([N+](=O)[O-])cc2C(F)(F)F)cc1)c1cccc(C(C)(C)c2ccc(Oc3ccc([N+](=O)[O-])cc3C(F)(F)F)cc2)c1` registered a melting point of 127 to 128 °C.

For the compound `CCCCCCCCCCCCCCCCNC(=O)c1cc(OCCSCC(=O)O)c2ccccc2c1O`, the melting point lay in the range of 91 to 93 °C.

For the compound `COc1ccc(CN2CC(=O)Nc3cccc(Cl)c3C2=O)c(OC)c1`, the melting point is 230 to 231 °C.

In the case of `CCC(C#Cc1cccc(Oc2ccccn2)c1)N(O)C(N)=O` (stereo not given), the melting point lay within 96 to 98 °C.

Consider `C=CCn1c(C)nc2c(O)c(C(=O)[C@@H]3OC(C)(C)O[C@H]3c3ccccc3)ccc21`, for which the melting point was found to be 123 °C.

`CCCC[C@H](NC(=O)[C@@H](NC(=O)OCc1ccccc1)C(C)C)C(=O)CSCc1ccco1` returned a melting point of 115 to 116 °C.

With `Cc1c(C)c2c(c(C)c1N)CC(C)(CSCCC(=O)O)O2` (stereo not given), the melting point fell in the range of 139 to 140 °C.

`CN1CCN(c2ccccc2C=CC(=O)NCc2ccc(Cl)cc2)CC1` came in with a melting point of 193 to 194 °C.

For `CCCOC(Cc1ccc(OCCc2nc(C3CC3)oc2C)c2ccsc12)C(=O)O` (stereo not given), the melting point lay within 61 to 63 °C.

`CCN1CCN(c2nc(C)c(C(=O)NCc3cccnc3)s2)C1=O` returned a melting point of 163 to 164 °C.

In turn, `Cc1ncnc(Nc2ccc(C(=O)CCC3CCN(Cc4ccccc4)CC3)cc2)c1C` displayed a melting point of 168 to 170 °C.

On to `CC(=O)CCc1cc(F)c2ncc(C(=O)NCc3ccc(Cl)cc3)c(O)c2c1`, for which the melting point was 218 to 222 °C.

`CCCCCCc1cc2c(s1)-n1c(C)nnc1CN=C2c1ccc(C)c(C)c1`: the melting point was in the range of 98 to 100 °C.

In turn, `CC(=O)N(C)Nc1nnc(-c2ccccc2C)s1` returned a melting point of 106 to 108 °C.

In turn, `CC1(C)CN(C2CC3(C)C(CCC4C5CCC(C#N)C5(C)CCC43)CC2O)CCO1` (stereo not given) came in with a melting point of 170 to 173 °C.

Take `Cc1ccc(S(=O)(=O)NC(=O)C2C(=O)CC(C(C)C)CC2=O)cc1` (stereo not given): the melting point was in the range of 106 to 108 °C.

Compound `Cc1nn(CC(=O)c2ccc(Cl)cc2)c(=O)n1-c1ccc(N2CCN(c3ncc(O)cn3)CC2)cc1` yielded a melting point of 225 °C.

Take `NS(=O)(=O)c1cccc(NC(=O)c2cnn3c(C(F)(F)F)cc(-c4ccc(C(F)(F)F)c(Cl)c4)nc23)c1`: the melting point is 287 °C.

As for `CCCc1nc2c(N)nc3cc(OCc4ccccc4C)ccc3c2n1CC(C)C`, the melting point was 228 °C.

The compound `CCCN1CCc2c(cccc2NC(=O)c2ccc(OC)c(OC)c2)C1` gave a melting point of 146 to 147 °C.

Compound `N#Cc1cccc2c1NC(=O)C21COc2cc3c(cc21)OCO3` (stereo not given) had a melting point of 205 to 207 °C.

`Cn1cc(CCN2C(=O)c3ccccc3C2=O)c2cc(CNC=O)ccc21` showed a melting point of 189 to 191 °C.

For `Cc1cc(Nc2ccnc(Nc3ccc(S(=O)(=O)N4CCC(C(O)c5ccncc5)CC4)cc3)n2)ccc1F` (stereo not given), the melting point worked out at 162 °C.

`COc1ccc(Oc2cc3nc(-c4ccccc4)oc3cc2[N+](=O)[O-])cc1`: the melting point was 142 to 146 °C.

`CON1C(C)(C)CC(OC(=O)CCc2cc(-n3nc4ccc(Cl)cc4n3)c(O)c(C(C)(C)C)c2)CC1(C)C` displayed a melting point of 132 to 137 °C.

In the case of `Cc1cccc(NC(=O)NC2CN(CC(=O)N3CC4CCC(CC4)C3)c3c(C)cccc3C(c3ccccc3F)=N2)c1` (stereo not given), the melting point was in the range of 246 to 247 °C.

On to `O=C(NCC(=O)N1c2ccccc2N(Cc2ccccc2)C(=O)[C@H]2CCC[C@H]21)c1cccs1` (relative stereo), for which the melting point is 223 °C.

In turn, `N#CC(=NOS(=O)(=O)CCCCl)c1cccs1` showed a melting point of 56 to 58 °C.

`OC[C@H]1O[C@H]1c1ccsc1` (racemic) had a melting point of 63 to 65 °C.

In turn, `O=C(Nc1ccc2cc(CN3CCCCC3)ccc2c1)c1ccc(-c2ccc(F)cc2)nc1` showed a melting point of 218 to 219 °C.

`CCOC(=O)/C=C/c1c(-c2ccc(F)cc2)n(CCF)c(=O)c2ccccc12` gave a melting point of 136 to 137 °C.

For the compound `Clc1ccc(-c2cn([C@H]3CN4CCC3CC4)nn2)cc1Cl`, the melting point was found to be 108 °C.

With `CC[C@@H]1N(c2ccc(C#N)c(Cl)c2)C(=O)C[C@]1(C)O`, the melting point was in the range of 144 to 146 °C.

For `O=[N+]([O-])c1ccc(S(=O)(=O)NCc2ccc(Cl)cc2)c([N+](=O)[O-])c1`, the melting point was 161 to 162 °C.

As for `COc1cc(C)c(CCCCCCCCCCCCCCCCCCOC(C)=O)c(O)c1OC`, the melting point worked out at 53 °C.

On to `NCC1N=C(c2ccccc2F)c2ccccc2NC1=O` (racemic), for which the melting point lay in the range of 168 to 169 °C.

The compound `Fc1ccc2[nH]cc(C3=CCC(N4CCC(Cc5ccccc5)CC4)CC3)c2c1` (stereo not given) gave a melting point of 72 to 74 °C.

`O=C1c2c(O)ccc(O)c2C(=O)c2c(NCCN3CCOCC3)ccc(NCCN3CCOCC3)c21` displayed a melting point of 241 to 243 °C.

Take `CCCCc1nn2c(C)c(-c3ccccc3)nc2n1Cc1ccc(-c2ccccc2-c2nnn[nH]2)cc1`: the melting point lay in the range of 207 to 208 °C.

In the case of `COC(=O)Cc1ccc2c(c1)C(OC)=Cc1ccccc1C2`, the melting point was 72 to 73 °C.

The compound `CC=Cc1cccc2c(=O)c(C)c(-c3ccc(OC)cc3)oc12` showed a melting point of 169 to 171 °C.

In turn, `C[Si](C)(C)CCC1=C(O)C(=O)c2ccccc2C1=O` gave a melting point of 98 to 100 °C.

In the case of `CC(=O)NC12Oc3c(C(C)C)cc(C(C)C)cc3C1(O)C(=O)c1ccccc12` (stereo not given), the melting point fell in the range of 217 to 219 °C.

Regarding `O=C(NN=CC=Cc1ccc([N+](=O)[O-])o1)c1cc2ccccc2cc1O`, the melting point worked out at 259 °C.

In turn, `N#Cc1c[nH]c2c(NS(=O)(=O)c3cccc(Cl)c3)cccc12` showed a melting point of 204 to 205 °C.

In the case of `COc1cc(CCCN2CCc3cc(OC)c(OC)cc3C2)ccc1NC(=O)c1cccc2c(=O)c3c(OC)ccc(OC)c3[nH]c12`, the melting point was 140 °C.

`COC(C(N)=O)(C(N)=O)c1ccc(Cl)c(Cl)c1` had a melting point of 211 to 213 °C.

As for `Nc1cc(Cl)c(Cl)cc1NCCO`, the melting point was 120 °C.

Turning to `CSc1cc2nc[nH]c(=O)c2s1`, the melting point was in the range of 216 to 218 °C.

`CC(C)Nc1cccnc1N1CCN(C(=O)c2ccc(C(=O)NCCCn3ccnc3)cn2)CC1` registered a melting point of 105 to 108 °C.

Take `COc1cc(Nc2nccc(Nc3ccc(OCC(=O)O)cc3)n2)cc(OC)c1OC`: the melting point is 159 °C.

In the case of `COc1c(C(=O)NC2CN3CCC2CC3)cc(Cl)c2c1CCN2` (stereo not given), the melting point is 107 to 109 °C.

Regarding `CCn1cc(C(=O)O)c(=O)c2cc(Cl)c(N(C)C)cc21`, the melting point stood at 210 °C.

For `CCc1ccc(CC2N=C(c3ccc(F)cc3)c3cc(Cl)ccc3N(C)C2=O)cc1CC` (stereo not given), the melting point lay in the range of 54 to 56 °C.

`COCn1ncc2cc(Cl)c(NC(=O)c3cc(C(F)(F)F)nn3-c3ncccc3Cl)c(C(=O)NC(C)C)c21` yielded a melting point of 180 to 182 °C.

`O=C(NCCc1cccs1)C12CC3CC(CC1C3)C2` yielded a melting point of 113 to 114 °C.

As for `O=C(O)c1cccc(OC(Cl)=CCl)c1`, the melting point lay within 137 to 141 °C.

On to `CCCCCC(=O)CCC(=O)O`, for which the melting point lay within 67 to 68 °C.

`COC(=O)C1CCCn2c(=O)n(CCCl)c(=O)n21` (stereo not given) gave a melting point of 94 to 95 °C.

On to `COC(=O)Cc1nc(-c2ccc(OC)c(OC)c2)c2cc(Cl)ccc2n1`, for which the melting point was in the range of 144 to 145 °C.

The compound `COCCCN1CC[C@@H](CNC(=O)c2cc(Cl)c(N)c3c2OC(C)(C)C3)[C@H](O)C1` (relative stereo) gave a melting point of 97 °C.

In turn, `CCCCc1cn(CC2OC(n3cnc4c(NCc5ccc(OC)cc5)ncnc43)C(O)C2O)nn1` (stereo not given) yielded a melting point of 105 °C.

`COc1cc2c(cc1C)C1(CO2)C(=O)N(CC2CCCO2)c2ccccc21` (stereo not given) showed a melting point of 151 to 153 °C.

With `COc1ccc(C2(C)CCc3cc(OC)ccc3C2(O)C#CCCCCOC2CCCCO2)cc1` (stereo not given), the melting point fell in the range of 80 to 82 °C.

Regarding `CCCCc1nc2c(N)nc(C)c(C)c2n1CCCCNS(C)(=O)=O`, the melting point was 130 °C.

Take `C=CCN(C)c1nc(-c2cc(OC)c(OC)c(OC)c2)nc2sc(C#N)c(C)c12`: the melting point was in the range of 162 to 164 °C.

In turn, `CC1CCCN1CCCN1CCN(CCN2CCCC2C)C1=C(C#N)C#N` (stereo not given) showed a melting point of 69 to 71 °C.

Compound `COc1ccc2c(c1)OC(C#N)=CO2` displayed a melting point of 92 °C.

Turning to `Clc1cc2snnc2s1`, the melting point fell in the range of 78 to 79 °C.

`CS(=O)(=O)N1CCN(c2ccc(O)cc2)CC1` registered a melting point of 205 °C.

Compound `COC(=O)Nc1cc(-c2ccc(S(C)(=O)=O)cc2)n(-c2ccc(F)cc2)n1` came in with a melting point of 225 to 227 °C.

`CCc1cccc(CC)c1NC(=O)c1c2n(c(C)c(Br)c1=O)CCCC2` displayed a melting point of 208 to 210 °C.

For `CS(=O)(=O)OCCCCCc1ccc(OCc2coc(/C=C/c3ccccc3)n2)cc1`, the melting point lay within 105 to 106 °C.

Compound `Nc1cc(-n2cc(C(=O)O)c(=O)c3cc(F)c(NC4CC4)c(Cl)c32)c(F)cc1F` yielded a melting point of 141 to 143 °C.

With `Cc1c(Br)sc2cc(CO)ccc12`, the melting point was 91 °C.

As for `Cn1ncc2c1CS(=O)(=O)c1cn[nH]c1-2`, the melting point is > 270 °C.

`CC(=O)Nc1cc([N+](=O)[O-])c(C(=O)O)c([N+](=O)[O-])c1O` showed a melting point of 199 to 203 °C.
